Test results reported in ChEMBL document CHEMBL1201862, “PubChem BioAssay data set” (2004).
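Briefly, cells in 96-well plates were exposed to five compound concentrations for 48 h, and endpoints were estimated by linear interpolation. At the GI50, growth is halved.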 The source made the active and inactive calls. No stated cut-off is given here; in the data, active = GI50 up to about 1.1 µM and inactive = higher.

Assays:
Experiment in all cases: DTP human tumour cell line panel, 48 h
A498 = tested on: A498
CAKI-1 = tested on: CAKI-1
CCRF-CEM = tested on: CCRF-CEM
COLO 205 = tested on: COLO 205
EKVX = tested on: EKVX
HCC 2998 = tested on: HCC 2998
HCT-116 = tested on: HCT-116
HT-29 = tested on: HT-29
M14 = tested on: M14
MCF7 = tested on: MCF7
MDA-N = tested on: MDA-N
MOLT-4 = tested on: MOLT-4
OVCAR-4 = tested on: OVCAR-4
OVCAR-5 = tested on: OVCAR-5
OVCAR-8 = tested on: OVCAR-8
SF-539 = tested on: SF-539
SK-MEL-2 = tested on: SK-MEL-2
SK-OV-3 = tested on: SK-OV-3
SNB-19 = tested on: SNB-19
UACC-62 = tested on: UACC-62

Row | Structure (SMILES) | GI50 (A498) | GI50 (CAKI-1) | GI50 (CCRF-CEM) | GI50 (COLO 205) | GI50 (EKVX) | GI50 (HCC 2998) | GI50 (HCT-116) | GI50 (HT-29) | GI50 (M14) | GI50 (MCF7) | GI50 (MDA-N) | GI50 (MOLT-4) | GI50 (OVCAR-4) | GI50 (OVCAR-5) | GI50 (OVCAR-8) | GI50 (SF-539) | GI50 (SK-MEL-2) | GI50 (SK-OV-3) | GI50 (SNB-19) | GI50 (UACC-62)
1 | N#Cc1c(Cl)c2ccccc2n2c1nc1ccccc12 | > 100 µM (inactive) | 21.9 µM (inactive) | 11.2 µM (inactive) | 23.1 µM (inactive) | 19.9 µM (inactive) | 19.6 µM (inactive) | 18.3 µM (inactive) | 20.3 µM (inactive) | 19.6 µM (inactive) | 39.9 µM (inactive) | 35 µM (inactive) | 30.3 µM (inactive) | 27.4 µM (inactive) | > 100 µM (inactive) | 21.9 µM (inactive) | 19.4 µM (inactive) | 37.3 µM (inactive) | 87.9 µM (inactive) | 74.6 µM (inactive) | 43.5 µM (inactive)
2 | c1cc(-c2ccc(Oc3ccc(-c4ccncc4)cc3)cc2)ccn1 | 6.76 µM (inactive) | 3.22 µM (inactive) | 4.73 µM (inactive) | 3.56 µM (inactive) | 5.53 µM (inactive) | 5 µM (inactive) | 4.24 µM (inactive) | 3.7 µM (inactive) | 4.76 µM (inactive) | 4.26 µM (inactive) | 2.39 µM (inactive) | 2.99 µM (inactive) | 5.47 µM (inactive) | 29.2 µM (inactive) | 9.55 µM (inactive) | 5.4 µM (inactive) | 5.38 µM (inactive) | 15.3 µM (inactive) | 6.25 µM (inactive) | 7.18 µM (inactive)
3 | Nc1ccc(Cc2c(N)[nH]c(=O)[nH]c2=O)cc1 | 47.3 µM (inactive) | > 100 µM (inactive) | 39.5 µM (inactive) | > 100 µM (inactive) |  | > 100 µM (inactive) | > 100 µM (inactive) | > 100 µM (inactive) | > 100 µM (inactive) | > 100 µM (inactive) | > 100 µM (inactive) | 1.61 µM (inactive) | > 100 µM (inactive) | > 100 µM (inactive) | > 100 µM (inactive) | > 100 µM (inactive) | > 100 µM (inactive) | > 100 µM (inactive) | > 100 µM (inactive) | > 100 µM (inactive)
4 | O=C1C(N2CCN(CCOCCO)CC2)=C(Cl)C(=O)c2ncccc21 | > 10 µM (inactive) | 17.3 µM (inactive) | 1.92 µM (inactive) | 8.28 µM (inactive) | 19.6 µM (inactive) | > 10 µM (inactive) | 5.71 µM (inactive) | 22.6 µM (inactive) | 20.8 µM (inactive) | 3.78 µM (inactive) | 1.97 µM (inactive) | 2.37 µM (inactive) | 20.3 µM (inactive) | 24.5 µM (inactive) | 18.1 µM (inactive) | 21.1 µM (inactive) | 20.9 µM (inactive) | > 10 µM (inactive) | > 10 µM (inactive) | 21.5 µM (inactive)
5 | Cc1ccc2c(c1)C(=O)N1CCC[C@H]1C=N2 | 34 µM (inactive) | 15.6 µM (inactive) | 4.02 µM (inactive) | 17.6 µM (inactive) | 26.4 µM (inactive) | 19.6 µM (inactive) | 30 µM (inactive) | 15.4 µM (inactive) | 16.9 µM (inactive) | 11.9 µM (inactive) | 19.2 µM (inactive) | 18.8 µM (inactive) | 19.4 µM (inactive) | 28.4 µM (inactive) | 23.9 µM (inactive) | 18.3 µM (inactive) | 17.5 µM (inactive) | 42 µM (inactive) | 28.2 µM (inactive) | 16.6 µM (inactive)
6 | CC(=O)O[C@H]1C(=O)[C@@]2(C)C(C(OC(=O)c3ccccc3)[C@]3(O)CC(OC(=O)C(O)C(NC(=O)c4ccccc4)c4ccc(F)cc4)C(C)=C1C3(C)C)[C@]1(OC(C)=O)CO[C@@H]1C[C@@H]2O (some centres undefined) | < 0.001 µM (active) | 0.0942 µM (active) | 0.0014 µM (active) | < 0.001 µM (active) | 0.00857 µM (active) | 0.00124 µM (active) | < 0.001 µM (active) | < 0.001 µM (active) | 0.00164 µM (active) | < 0.001 µM (active) | < 0.001 µM (active) | 0.00359 µM (active) | 0.0904 µM (active) | 0.00141 µM (active) | 0.00164 µM (active) | < 0.001 µM (active) | 0.00133 µM (active) | 0.00371 µM (active) | 0.00252 µM (active) | 0.00138 µM (active)
7 | C=C(C(N)=O)c1ccc([N+](=O)[O-])o1 | 12.6 µM (inactive) | 3.4 µM (inactive) | 3.22 µM (inactive) | 3.31 µM (inactive) | 18.1 µM (inactive) | 16.7 µM (inactive) | 3.97 µM (inactive) | 11.9 µM (inactive) | 2.82 µM (inactive) | 6.11 µM (inactive) | 3 µM (inactive) | 3.84 µM (inactive) | 11.6 µM (inactive) | 18.7 µM (inactive) | 2.9 µM (inactive) | 12.6 µM (inactive) | 5.93 µM (inactive) | 30.8 µM (inactive) | 37.1 µM (inactive) | 7.03 µM (inactive)
